Data from PubChem BioAssay AID1963442 (Molecular Pharmacology Branch, DTP, NCI, 2024).
pIC50: −log10 of the molar value. Where “and” joins values, the source holds several entries; their conditions need not be identical. Equal values may be shown once.

Tested on: MPNST complex spheroid with HUVEC/MSC, growth, % test/control
Experiment: Anticancer human tumor MPNST cell line growth inhibition [Asc];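 further: compounds left on spheroids for seven days before reading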
Settings: for viability, T/C: stronger effect = lower value
Procedure, shortened: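 Stromal components (HUVEC and hMSC) are co-assembled with the cancer cells into multicellular spheroids. Drugs are then added singly or paired, at concentrations falling by half-log increments from a clinically achievable maximum, capped at 10 microM without known Cmax.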

[1] = curve of first compound, second compound 0.00316 µM
[2] = curve of first compound, second compound 0.01 µM
[3] = curve of first compound, second compound 0.0316 µM
[4] = curve of first compound, second compound 0.1 µM
[5] = curve of first compound, second compound 0.316 µM
[6] = curve of first compound, second compound 1 µM

`CCN1C(C(=O)NC23CCC(C(=O)O)(CC2)CC3)C(c2cccc(Cl)c2F)C2(C(=O)Nc3cc(Cl)ccc32)C12CCCCC2` (stereo not drawn) + CNC(C)C(=O)NC1CN(S(=O)(=O)c2cccc(S(=O)(=O)N3CCC4CCC(C(=O)NC(c5ccccc5)c5ccccc5)N4C(=O)C(NC(=O)C(C)NC)C3)c2)CCC2CCC(C(=O)NC(c3ccccc3)c3ccccc3)N2C1=O showed a pIC50 [1] of under 5.52, a pIC50 [2] of under 5.52 and a pIC50 [3] of under 5.52. For the same compound, the pIC50 [4] was under 5.52, the pIC50 [5] was under 5.52 and the pIC50 [6] was under 5.52. The viability, T/C (second compound 0.00316 µM, first compound 0.00949 µM) was 98.4%, the viability, T/C (second compound 0.00316 µM, first compound 0.03 µM) was 64.1% and the viability, T/C (second compound 0.00316 µM, first compound 0.0949 µM) was 79.5%. It also gave a viability, T/C (second compound 0.00316 µM, first compound 0.3 µM) of 85.6%, a viability, T/C (second compound 0.00316 µM, first compound 0.949 µM) of 74.1% and a viability, T/C (second compound 0.00316 µM, first compound 3 µM) of 76%. It also gave a viability, T/C (second compound 0.01 µM, first compound 0.00949 µM) of 100%, a viability, T/C (second compound 0.01 µM, first compound 0.03 µM) of 106% and a viability, T/C (second compound 0.01 µM, first compound 0.0949 µM) of 86.3%. It also gave a viability, T/C (second compound 0.01 µM, first compound 0.3 µM) of 64.1%, a viability, T/C (second compound 0.01 µM, first compound 0.949 µM) of 78.9% and a viability, T/C (second compound 0.01 µM, first compound 3 µM) of 63.4%. It also gave a viability, T/C (second compound 0.0316 µM, first compound 0.00949 µM) of 87.2%, a viability, T/C (second compound 0.0316 µM, first compound 0.03 µM) of 66.3% and a viability, T/C (second compound 0.0316 µM, first compound 0.0949 µM) of 69.3%. For the same compound, the viability, T/C (second compound 0.0316 µM, first compound 0.3 µM) was 70.5%, the viability, T/C (second compound 0.0316 µM, first compound 0.949 µM) was 68.8% and the viability, T/C (second compound 0.0316 µM, first compound 3 µM) was 68.1%. The viability, T/C (second compound 0.1 µM, first compound 0.00949 µM) was 92.9%, the viability, T/C (second compound 0.1 µM, first compound 0.03 µM) was 77.7% and the viability, T/C (second compound 0.1 µM, first compound 0.0949 µM) was 70.3%. For the same compound, the viability, T/C (second compound 0.1 µM, first compound 0.3 µM) was 80.6%, the viability, T/C (second compound 0.1 µM, first compound 0.949 µM) was 58.5% and the viability, T/C (second compound 0.1 µM, first compound 3 µM) was 64.6%. The viability, T/C (second compound 0.316 µM, first compound 0.00949 µM) was 68.8%, the viability, T/C (second compound 0.316 µM, first compound 0.03 µM) was 71.5% and the viability, T/C (second compound 0.316 µM, first compound 0.0949 µM) was 86%. The viability, T/C (second compound 0.316 µM, first compound 0.3 µM) was 68.2%, the viability, T/C (second compound 0.316 µM, first compound 0.949 µM) was 68.1% and the viability, T/C (second compound 0.316 µM, first compound 3 µM) was 62.1%. It also gave a viability, T/C (second compound 1 µM, first compound 0.00949 µM) of 97%, a viability, T/C (second compound 1 µM, first compound 0.03 µM) of 68.2% and a viability, T/C (second compound 1 µM, first compound 0.0949 µM) of 87.7%. It also gave a viability, T/C (second compound 1 µM, first compound 0.3 µM) of 65.3%, a viability, T/C (second compound 1 µM, first compound 0.949 µM) of 65.6% and a viability, T/C (second compound 1 µM, first compound 3 µM) of 70.2%.

With `C=CC(=O)N1CCN(c2nc(=O)n(-c3c(C)ccnc3C(C)C)c3nc(-c4c(O)cccc4F)c(F)cc23)C(C)C1` (stereo not drawn) the viability, T/C (compound 0.0316 µM) was 99.3% and 91.7% and 80.4%, the viability, T/C (compound 0.1 µM) was 81% and 76.5% and 90.9% and the viability, T/C (compound 0.316 µM) was 99% and 90.2% and 92.3%. For the same compound, the viability, T/C (compound 1 µM) was 87.4% and 78.7% and 108%, the viability, T/C (compound 3.16 µM) was 104% and 121% (2×) and the viability, T/C (compound 10 µM) was 101% and 143% and 119%. The pIC50 (curve of compound) was under 5.00.

`CNC(C)C(=O)NC1CN(S(=O)(=O)c2cccc(S(=O)(=O)N3CCC4CCC(C(=O)NC(c5ccccc5)c5ccccc5)N4C(=O)C(NC(=O)C(C)NC)C3)c2)CCC2CCC(C(=O)NC(c3ccccc3)c3ccccc3)N2C1=O` (stereo not drawn) showed a pIC50 (curve of compound) of under 6.00.

`NC(=O)C(=Cn1cnc(-c2cc(C(F)(F)F)cc(C(F)(F)F)c2)n1)c1cncnc1` was tested, and the viability, T/C (compound 0.000949 µM) was 66.2% and 56.3% and 21.6%, the viability, T/C (compound 0.003 µM) was 90% and 89% and 18% and the viability, T/C (compound 0.00949 µM) was 81.3% and 73.5% and 18.6%. The viability, T/C (compound 0.03 µM) was 67.2% and 38.9% and 20.1%, the viability, T/C (compound 0.0949 µM) was 61.8% and 57.6% and 17.8% and the viability, T/C (compound 0.3 µM) was 53.9% and 40.3% and 22.3%.

Compound `C#Cc1c(F)ccc2cc(O)cc(-c3ncc4c(N5CC6CCC(C5)N6)nc(OCC56CCCN5CC(F)C6)nc4c3F)c12` (stereo not drawn) + CNC(C)C(=O)NC1CN(S(=O)(=O)c2cccc(S(=O)(=O)N3CCC4CCC(C(=O)NC(c5ccccc5)c5ccccc5)N4C(=O)C(NC(=O)C(C)NC)C3)c2)CCC2CCC(C(=O)NC(c3ccccc3)c3ccccc3)N2C1=O has a pIC50 [1] of under 5.00, a pIC50 [2] of under 5.00 and a pIC50 [3] of under 5.00. The pIC50 [4] was under 5.00, the pIC50 [5] was under 5.00 and the pIC50 [6] was under 5.00. The viability, T/C (second compound 0.00316 µM, first compound 0.0316 µM) was 65.6%, the viability, T/C (second compound 0.00316 µM, first compound 0.1 µM) was 43.9% and the viability, T/C (second compound 0.00316 µM, first compound 0.316 µM) was 57.7%. For the same compound, the viability, T/C (second compound 0.00316 µM, first compound 1 µM) was 78.2%, the viability, T/C (second compound 0.00316 µM, first compound 3.16 µM) was 75.3% and the viability, T/C (second compound 0.00316 µM, first compound 10 µM) was 53%. It also gave a viability, T/C (second compound 0.01 µM, first compound 0.0316 µM) of 96%, a viability, T/C (second compound 0.01 µM, first compound 0.1 µM) of 99.5% and a viability, T/C (second compound 0.01 µM, first compound 0.316 µM) of 60.1%. The viability, T/C (second compound 0.01 µM, first compound 1 µM) was 63.5%, the viability, T/C (second compound 0.01 µM, first compound 3.16 µM) was 73.1% and the viability, T/C (second compound 0.01 µM, first compound 10 µM) was 46.2%. For the same compound, the viability, T/C (second compound 0.0316 µM, first compound 0.0316 µM) was 103%, the viability, T/C (second compound 0.0316 µM, first compound 0.1 µM) was 66.8% and the viability, T/C (second compound 0.0316 µM, first compound 0.316 µM) was 69%. For the same compound, the viability, T/C (second compound 0.0316 µM, first compound 1 µM) was 70.5%, the viability, T/C (second compound 0.0316 µM, first compound 3.16 µM) was 52.1% and the viability, T/C (second compound 0.0316 µM, first compound 10 µM) was 56.6%. For the same compound, the viability, T/C (second compound 0.1 µM, first compound 0.0316 µM) was 56%, the viability, T/C (second compound 0.1 µM, first compound 0.1 µM) was 67.8% and the viability, T/C (second compound 0.1 µM, first compound 0.316 µM) was 78.2%. The viability, T/C (second compound 0.1 µM, first compound 1 µM) was 64.1%, the viability, T/C (second compound 0.1 µM, first compound 3.16 µM) was 63.2% and the viability, T/C (second compound 0.1 µM, first compound 10 µM) was 53.1%. The viability, T/C (second compound 0.316 µM, first compound 0.0316 µM) was 73.2%, the viability, T/C (second compound 0.316 µM, first compound 0.1 µM) was 75.1% and the viability, T/C (second compound 0.316 µM, first compound 0.316 µM) was 70%. It also gave a viability, T/C (second compound 0.316 µM, first compound 1 µM) of 58.3%, a viability, T/C (second compound 0.316 µM, first compound 3.16 µM) of 60.3% and a viability, T/C (second compound 0.316 µM, first compound 10 µM) of 67.3%. For the same compound, the viability, T/C (second compound 1 µM, first compound 0.0316 µM) was 76%, the viability, T/C (second compound 1 µM, first compound 0.1 µM) was 79.5% and the viability, T/C (second compound 1 µM, first compound 0.316 µM) was 69.4%. It also gave a viability, T/C (second compound 1 µM, first compound 1 µM) of 82.5%, a viability, T/C (second compound 1 µM, first compound 3.16 µM) of 62.2% and a viability, T/C (second compound 1 µM, first compound 10 µM) of 84.3%.
